Where two headings read alike, the source gives them in different places.
Experiments:
[1] = molecular target: T1, recombinant human Caspase-1 (Homo sapiens, UniProt P29466); experiment: Caspase-1 inhibitory activity, fluorescent substrate Ac-YVAD-AFC; type: biochemical
T1 construct: purchased Enzo life science
T1 sequence (P29466 120-297 limits assumed): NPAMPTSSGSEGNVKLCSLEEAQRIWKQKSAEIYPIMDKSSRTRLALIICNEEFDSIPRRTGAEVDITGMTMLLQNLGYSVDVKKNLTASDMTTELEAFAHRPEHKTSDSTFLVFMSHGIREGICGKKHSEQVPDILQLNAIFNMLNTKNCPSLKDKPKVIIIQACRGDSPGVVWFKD
T1 sequence (P29466 317-404 limits assumed): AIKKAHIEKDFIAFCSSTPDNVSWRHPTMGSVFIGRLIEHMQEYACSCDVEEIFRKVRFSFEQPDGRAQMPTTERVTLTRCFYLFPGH
Experimental: To determine the Caspase-1 inhibitory activity of the compounds of the present invention prepared in Example, Caspase-1 activity was measured using a substrate with a fluorescent dye attached to it. […] The compound was dissolved in DMSO and stored at −20° C. Enzymatic reactions were carried out in a buffer comprising 50 mM HEPES (pH 8.0), 50 mM KCl, 200 mM NaCl, 10 mM DTT, 0.1% CHAPS (w/v). Enzyme inactivation was measured in the presence of different concentrations of the compound using the fluorescent substrate N-Acetyl-Tyr-Val-Ala-Asp-7-amido-4-trifluoromethylcoumarin (Ac-YVAD-AFC) (Sigma) at a concentration of 50 μM and 1 unit of recombinant human Caspase-1 (Enzo life science). A CLARIOstar Plus spectrometer (BMG Labtech) was used to measure the reaction rate as a function of time in the 400/505 nm (Ex/Em) wavelength band. […] If kobs/[I] is 20 or more, it is denoted as A, if it is 10 or more but less than 20, it is denoted as B, if it is 1 or more but less than 10, it is denoted as C, and if it is less than 1, it is denoted as D.
In the above equation, At means the enzyme reaction rate at time t (min), and Amax means the maximum reaction rate.

[2] = tested on: Secreted IL-1β in THP-1 cells; experiment: Interleukin-1β inhibitory activity in human monocytic cells THP-1 (ELISA); type: cell-based; conditions: compound 100 nM, PMA-differentiated THP-1, LPS 10 μg/ml then 5 mM ATP, 24 h
Experimental: Caspase-1 is known as […] (ICE). Activated Caspase-1 is involved in the cleavage of pro-form IL-1β to produce the mature form, which is then secreted to induce inflammation. Therefore, the compounds identified in Experimental example 1 were tested to determine if their Caspase-1 inhibitory activity affected the production of […].
THP-1 (ATCC) cells were cultured in RPMI 1640 (Hyclone) growth medium comprising 10% Fetal bovine serum (FBS, Gibco) and antibiotics (100 U/ml Penicillin, 0.1 mg/ml Streptomycin, Cytiva) under 37° C., 5% CO2 conditions. Cultured THP-1 cells were seeded in growth medium to a concentration of 3×10^5 cells/well in 24-well plates (Celvest) and then treated with 1 μM Phorbol 12-myristate 13-acetate (PMA) (Sigma) for 24 hours to induce differentiation. Differentiated THP-1 were pre treated with 10 μg/ml Lipopolysaccharide (LPS, from E. coli 0111:B4 (InvivoGen)) in serum free RPMI 1640 medium for 24 hours to induce an inflammatory response. After removal of LPS, the compounds were pretreated for 1 h at a concentration of 100 nM using the same medium, followed by the addition of 5 mM ATP (InvivoGen) and incubation for 24 h in an incubator. The treated medium was collected and centrifuged, and IL-1β was quantified using an Enzyme linked immunoassay kit (ELISA kit, R&D system), and absorbance was measured at 450 nm using a CLARIOstar Plus spectrometer. Inhibitory activity was denoted as a if it was 50% or more, b if it was 30% or more but less than 50%, c if it was 10% or more but less than 30%, and d if it was less than 10%.

[3] = pH 8, read-out: kobs/[I] Caspase-1
[4] = pH 8, 1 unit recombinant human Caspase-1, 50 μM Ac-YVAD-AFC, read-out: kobs/[I] Caspase-1

Row | Compound | kinact/KI [1, 3] [M⁻¹ s⁻¹] | kinact/KI [1, 4] [M⁻¹ s⁻¹] | inhibition at 0.1 µM [2] [%]
1 | CC[C@@H](C(=O)NC(CC(=O)O)C(=O)CF)N1Cc2cc(N3CCCC3)ccc2C1=O (stereo partly drawn) [Compound 64, 5-fluoro-4-oxo-3-((S)-2-(1-oxo-5-(pyrrolidin-1-yl)isoindolin-2-yl)butanamido)pentanoic acid] | < 0.0167 | – | –
2 | CCC(C(=O)NC(CC(=O)O)C(=O)CF)N1Cc2ccc(-c3ccsc3)cc2C1=O (centres unmarked) [Compound 28, 5-fluoro-4-oxo-3-(2-(1-oxo-6-(thiophen-3-yl)isoindolin-2-yl)butanamido)pentanoic acid] | – | 0.0167 to 0.167 | 10 to 30
3 | CCC(C(=O)NC(CC(=O)O)C(=O)CF)N1Cc2ccc(-c3ccc(C(=O)O)cc3)cc2C1=O (centres unmarked) [Compound 17, 4-(2-(1-((1-carboxy-4-fluoro-3-oxobutan-2-yl)amino)-1-oxobutan-2-yl)-3-oxoisoindolin-5-yl)benzoic acid] | – | 0.0167 to 0.167 | 10 to 30
4 | CC[C@@H](C(=O)NC(CC(=O)O)C(=O)CF)N1Cc2cc(N3CCN(c4nsc5ccccc45)CC3)ccc2C1=O (stereo partly drawn) [Compound 63, 3-((S)-2-(5-(4-(benzo[d]isothiazol-3-yl)piperazin-1-yl)-1-oxoisoindolin-2-yl)butanamido)-5-fluoro-4-oxopentanoic acid] | < 0.0167 | – | –
5 | CC[C@@H](C(=O)N[C@@H](CC(=O)O)C(=O)COc1c(F)c(F)cc(F)c1F)N1Cc2ccc(N3CCCC3)cc2C1=O [Compound 53, (S)-4-oxo-3-((S)-2-(1-oxo-6-(pyrrolidin-1-yl)isoindolin-2-yl)butanamido)-5-(2,3,5,6-tetrafluorophenoxy)pentanoic acid] | 0.0167 to 0.167 | – | < 10
6 | CCC(C(=O)NC(CC(=O)O)C(=O)CF)N1Cc2ccc(N3CCN(c4nsc5ccccc45)CC3)cc2C1=O (centres unmarked) [Compound 19, 3-(2-(6-(4-(benzo[d]isothiazol-3-yl)piperazin-1-yl)-1-oxoisoindolin-2-yl)butanamido)-5-fluoro-4-oxopentanoic acid] | – | < 0.0167 | < 10
7 | C[C@@H](C(=O)NC(CC(=O)O)C(=O)CF)N1Cc2ccc(-c3coc4ccccc34)cc2C1=O (some centres unmarked) [Compound 49, 3-(2-(6-(benzofuran-3-yl)-1-oxoisoindolin-2-yl)propanamido)-5-fluoro-4-oxopentanoic acid] | – | 0.167 to 0.333 | –
8 | C[C@@H](C(=O)NC(CC(=O)O)C(=O)CF)N1Cc2ccc(-c3ccc4c(c3)OCCO4)cc2C1=O (some centres unmarked) [Compound 48, 3-(2-(6-(2,3-dihydrobenzo[b][1,4]dioxin-6-yl)-1-oxoisoindolin-2-yl)propanamido)-5-fluoro-4-oxopentanoic acid] | – | < 0.0167 | –
9 | CC[C@@H](C(=O)NC(CC(=O)O)C(=O)CF)N1Cc2cc(-c3cccc4ccccc34)ccc2C1=O (stereo partly drawn) [Compound 61, 5-fluoro-3-((S)-2-(5-(naphthalen-1-yl)-1-oxoisoindolin-2-yl)butanamido)-4-oxopentanoic acid] | < 0.0167 | – | < 10
10 | CCC(C(=O)NC(CC(=O)O)C(=O)CF)N1Cc2ccc(C3=CCOCC3)cc2C1=O (centres unmarked) [Compound 15, 3-(2-(6-(3,6-dihydro-2H-pyran-4-yl)-1-oxoisoindolin-2-yl)butanamido)-5-fluoro-4-oxopentanoic acid] | – | < 0.0167 | < 10
11 | CCC(C(=O)NC(CC(=O)O)C(=O)CF)N1Cc2ccc(-c3ccnc4ccccc34)cc2C1=O (centres unmarked) [Compound 31, 5-fluoro-4-oxo-3-(2-(1-oxo-6-(quinolin-4-yl)isoindolin-2-yl)butanamido)pentanoic acid] | – | 0.0167 to 0.167 | < 10
12 | CCC(C(=O)NC(CC(=O)O)C(=O)CF)N1Cc2ccc(-c3cccc4ncccc34)cc2C1=O (centres unmarked) [Compound 34, 5-fluoro-4-oxo-3-(2-(1-oxo-6-(quinolin-5-yl)isoindolin-2-yl)butanamido)pentanoic acid] | – | 0.0167 to 0.167 | < 10
13 | CCC(C(=O)NC(CC(=O)O)C(=O)CF)N1Cc2ccc(-c3ccn(C)n3)cc2C1=O (centres unmarked) [Compound 25, 5-fluoro-3-(2-(6-(1-methyl-1H-pyrazol-3-yl)-1-oxoisoindolin-2-yl)butanamido)-4-oxopentanoic acid] | – | 0.0167 to 0.167 | 10 to 30
14 | CCC(C(=O)NC(CC(=O)O)C(=O)CF)N1Cc2ccc(-c3ccc4scnc4c3)cc2C1=O (centres unmarked) [Compound 32, 3-(2-(6-(benzo[d]thiazol-5-yl)-1-oxoisoindolin-2-yl)butanamido)-5-fluoro-4-oxopentanoic acid] | – | 0.0167 to 0.167 | < 10
15 | CC(C)[C@@H](C(=O)NC(CC(=O)O)C(=O)CF)N1Cc2ccc(N3CCCC3)cc2C1=O (stereo partly drawn) [Compound 43, 5-fluoro-3-((S)-3-methyl-2-(1-oxo-6-(pyrrolidin-1-yl)isoindolin-2-yl)butanamido)-4-oxopentanoic acid] | < 0.0167 | – | 10 to 30
16 | C[C@@H](C(=O)NC(CC(=O)O)C(=O)CF)N1Cc2ccc(-c3ccc4[nH]c(=O)[nH]c4c3)cc2C1=O (some centres unmarked) [Compound 47, 5-fluoro-4-oxo-3-(2-(1-oxo-6-(2-oxo-2,3-dihydro-1H-benzo[d]imidazol-5-yl)isoindolin-2-yl)propanamido)pentanoic acid] | 0.0167 to 0.167 | – | –
17 | CC[C@@H](C(=O)NC(CC(=O)O)C(=O)CF)N1Cc2cc(-c3ccc4occc4c3)ccc2C1=O (stereo partly drawn) [Compound 60, 3-((S)-2-(5-(benzofuran-5-yl)-1-oxoisoindolin-2-yl)butanamido)-5-fluoro-4-oxopentanoic acid] | < 0.0167 | – | < 10
18 | CCC(C(=O)NC(CC(=O)O)C(=O)CF)N1Cc2ccc(-c3cnc(N)nc3)cc2C1=O (centres unmarked) [Compound 21] | – | 0.0167 to 0.167 | 30 to 50
19 | CCC(C(=O)NC(CC(=O)O)C(=O)CF)N1Cc2ccc(-c3ccc(C(F)(F)F)nc3)cc2C1=O (centres unmarked) [Compound 20, 5-fluoro-4-oxo-3-(2-(1-oxo-6-(6-(trifluoromethyl)pyridin-3-yl)isoindolin-2-yl)butanamido)pentanoic acid] | – | 0.0167 to 0.167 | 10 to 30
20 | CCC(C(=O)NC(CC(=O)O)C(=O)CF)N1Cc2ccc(-c3cnn4ccccc34)cc2C1=O (centres unmarked) [Compound 33, 5-fluoro-4-oxo-3-(2-(1-oxo-6-(pyrazolo[1,5-a]pyridin-3-yl)isoindolin-2-yl)butanamido)pentanoic acid] | – | 0.0167 to 0.167 | < 10
21 | CCC(C(=O)NC(CC(=O)O)C(=O)CF)N1Cc2ccc(-c3cccc4ccncc34)cc2C1=O (centres unmarked) [Compound 35, 5-fluoro-3-(2-(6-(isoquinolin-8-yl)-1-oxoisoindolin-2-yl)butanamido)-4-oxopentanoic acid] | 0.0167 to 0.167 | – | < 10
22 | CC[C@@H](C(=O)NC(CC(=O)O)C(=O)CF)N1Cc2cc(N3CCn4cc(C(F)(F)F)nc4C3)ccc2C1=O (stereo partly drawn) [Compound 62, 5-fluoro-4-oxo-3-((S)-2-(1-oxo-5-(2-(trifluoromethyl)-5,6-dihydroimidazo[1,2-a]pyrazin-7(8H)-yl)isoindolin-2-yl)butanamido)pentanoic acid] | < 0.0167 | – | –
23 | CCC(C(=O)NC(CC(=O)O)C(=O)CF)N1Cc2ccc(-c3cccc4cnccc34)cc2C1=O (centres unmarked) [Compound 36, 5-fluoro-3-(2-(6-(isoquinolin-5-yl)-1-oxoisoindolin-2-yl)butanamido)-4-oxopentanoic acid] | 0.0167 to 0.167 | – | < 10
24 | C[C@@H](C(=O)NC(CC(=O)O)C(=O)CF)N1Cc2ccc(N3CCCC3)cc2C1=O (some centres unmarked) [Compound 46, 5-fluoro-4-oxo-3-(2-(1-oxo-6-(pyrrolidin-1-yl)isoindolin-2-yl)propanamido)pentanoic acid] | < 0.0167 | – | –
